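96-well plates; 48 h exposure; 5 concentrations. Endpoints by linear interpolation between flanking doses. Not reached: highest tested concentration assigned. At the TGI there is no net growth.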
Legend:
Test in all cases: NCI tumour cell line growth inhibition, 48 h
[1] = system: KM12 colon
[2] = system: LXFL 529 NSCLC
[3] = system: HOP-62 NSCLC
[4] = system: RXF 393 renal
[5] = system: DMS 273 small cell lung
[6] = system: TK-10 renal
[7] = system: HOP-18 NSCLC
[8] = system: PC-3 prostate
[9] = system: NCI-H226 lung
[10] = system: T-47D breast
[11] = system: ACHN renal
[12] = system: MDA-MB-435
[13] = system: SF-268 CNS
[14] = system: MCF7 breast
[15] = system: CAKI-1 renal
[16] = system: IGROV1 ovarian
[17] = system: HOP-92 NSCLC
[18] = system: SNB-78 CNS
[19] = system: A549 NSCLC
[20] = system: SK-OV-3 ovarian
[21] = system: SK-MEL-5 melanoma
[22] = system: COLO 205 colon
[23] = system: MDA-N
[24] = system: DLD-1 colon
[25] = system: MDA-MB-231 breast
[26] = system: K-562 leukemia
[27] = system: M19-MEL melanoma
[28] = system: NCI/ADR-RES ovarian
[29] = system: NCI-H460 lung
[30] = system: SNB-75 CNS
[31] = system: NCI-H23 lung
[32] = system: BT-549 breast
[33] = system: HCC-2998 colon
[34] = system: SR leukemia
[35] = system: UACC-62 melanoma
[36] = system: SF-295 CNS
[37] = system: MALME-3M melanoma
[38] = system: M14 melanoma
[39] = system: RXF-631 renal
[40] = system: A498 renal
[41] = system: SF-539 CNS
[42] = system: HL-60(TB) leukemia
[43] = system: HT29 colon
[44] = system: XF 498 CNS
[45] = system: LOX IMVI melanoma
[46] = system: UACC-257 melanoma
[47] = system: UO-31 renal
[48] = system: KM20L2 colon
[49] = system: DU-145 prostate
[50] = system: SK-MEL-2 melanoma
[51] = system: 786-0 renal
[52] = system: SW-620 colon
[53] = system: OVCAR-8 ovarian
[54] = system: HCT-116 colon
[55] = system: MOLT-4 leukemia
[56] = system: OVCAR-3 ovarian
[57] = system: RPMI-8226 leukemia
[58] = system: SN12C renal
[59] = system: OVCAR-5 ovarian
[60] = system: NCI-H522 lung
[61] = system: CCRF-CEM leukemia
[62] = system: SK-MEL-28 melanoma
[63] = system: HS 578T breast
[64] = system: EKVX NSCLC
[65] = system: SNB-19 CNS
[66] = system: U251 CNS
[67] = system: OVCAR-4 ovarian
[68] = system: HCT-15 colon
[69] = system: DMS 114 small cell lung

SMILES: CCCCCCCCCCCCCCCCCCN(C)C(COC)COP(=O)([O-])OCC[N+](C)(C)C (configuration not stated)
- TGI [1]: 3.2 µM
- TGI [2]: 15.4 µM
- TGI [3]: 12.1 µM
- TGI [4]: 3.12 µM
- TGI [5]: 2.92 µM
- TGI [6]: 4.43 µM
- TGI [7]: 17 µM
- TGI [8]: 3.32 µM
- TGI [9]: 12.1 µM
- TGI [10]: 34.1 µM
- TGI [11]: 26.9 µM
- TGI [12]: 33.9 µM
- TGI [13]: 12.5 µM
- TGI [14]: 23.7 µM
- TGI [15]: 15.7 µM
- TGI [16]: 3.27 µM
- TGI [17]: 5.17 µM
- TGI [18]: 18.3 µM
- TGI [19]: 21.1 µM
- TGI [20]: 25.8 µM
- TGI [21]: 29.9 µM
- TGI [22]: 3.22 µM
- TGI [23]: 31.1 µM
- TGI [24]: 13.8 µM
- TGI [25]: 19.6 µM
- TGI [26]: 31.3 µM
- TGI [27]: 12.9 µM
- TGI [28]: > 58.3 µM
- TGI [29]: 4.38 µM
- TGI [30]: 8.3 µM
- TGI [31]: 23.9 µM
- TGI [32]: 26 µM
- TGI [33]: 3.46 µM
- TGI [34]: 22.9 µM
- TGI [35]: 19.2 µM
- TGI [36]: 10.3 µM
- TGI [37]: 29.5 µM
- TGI [38]: 13.7 µM
- TGI [39]: 26 µM
- TGI [40]: 34.1 µM
- TGI [41]: 19 µM
- TGI [42]: 4.34 µM
- TGI [43]: 9.44 µM
- TGI [44]: 39.8 µM
- TGI [45]: 18.8 µM
- TGI [46]: 29.5 µM
- TGI [47]: 31.4 µM
- TGI [48]: 6.92 µM
- TGI [49]: 24.5 µM
- TGI [50]: 35.6 µM
- TGI [51]: 3.56 µM
- TGI [52]: 21.2 µM
- TGI [53]: 26.3 µM
- TGI [54]: 17 µM
- TGI [55]: 4.28 µM
- TGI [56]: 22.4 µM
- TGI [57]: 5.85 µM
- TGI [58]: 19.5 µM
- TGI [59]: 6.32 µM
- TGI [60]: 10.7 µM
- TGI [61]: 7.41 µM
- TGI [62]: 36.7 µM
- TGI [63]: 22.5 µM
- TGI [64]: 34.2 µM
- TGI [65]: 14.1 µM
- TGI [66]: 4.2 µM
- TGI [67]: 12.3 µM

SMILES: Cc1nc(C(N)=S)sc1C(=O)CC(=O)C(=O)Nc1ccccc1[N+](=O)[O-]
- TGI [1]: > 100 µM
- TGI [2]: > 100 µM
- TGI [3]: > 100 µM
- TGI [4]: > 100 µM
- TGI [5]: > 100 µM
- TGI [6]: > 100 µM
- TGI [7]: > 100 µM
- TGI [11]: > 100 µM
- TGI [13]: > 100 µM
- TGI [68]: > 100 µM
- TGI [15]: > 100 µM
- TGI [16]: > 100 µM
- TGI [17]: > 100 µM
- TGI [18]: > 100 µM
- TGI [19]: > 100 µM
- TGI [20]: > 100 µM
- TGI [21]: > 100 µM
- TGI [24]: > 100 µM
- TGI [26]: > 100 µM
- TGI [27]: > 100 µM
- TGI [29]: > 100 µM
- TGI [30]: > 100 µM
- TGI [31]: > 100 µM
- TGI [33]: > 100 µM
- TGI [34]: > 100 µM
- TGI [35]: > 100 µM
- TGI [36]: > 100 µM
- TGI [69]: > 100 µM
- TGI [37]: > 100 µM
- TGI [38]: > 100 µM
- TGI [39]: > 100 µM
- TGI [40]: > 100 µM
- TGI [41]: > 100 µM
- TGI [42]: > 100 µM
- TGI [43]: > 100 µM
- TGI [45]: > 100 µM
- TGI [46]: > 100 µM
- TGI [47]: > 100 µM
- TGI [48]: > 100 µM
- TGI [50]: > 100 µM
- TGI [51]: > 100 µM
- TGI [52]: > 100 µM
- TGI [53]: > 100 µM
- TGI [54]: > 100 µM
- TGI [55]: > 100 µM
- TGI [56]: > 100 µM
- TGI [57]: > 100 µM
- TGI [59]: > 100 µM
- TGI [60]: > 100 µM
- TGI [61]: > 100 µM
- TGI [62]: > 100 µM
- TGI [64]: > 100 µM
- TGI [65]: > 100 µM
- TGI [66]: > 100 µM
- TGI [67]: > 100 µM
